How the values were obtained:
[1] = test system: T cell proliferation; details: read-out: Median inhibitory concentration (IC50), T cell proliferation; cited from earlier work
[2] = test system: renal cell carcinoma (RCC); details: early RCC patients; cited from earlier work
[3] = Toxicity on rat primary hepatocytes (ATP detection); type: cell-based; details: SD, ATP detection reagent
Description: Experimental method: Liver lobes of SD rat were placed in sterilized plate, added with a suitable amount of liver cell cleaning solution (precooled at 4° C.), the liver was shredded and fibrous connective tissues were removed to form a liver cell suspension, screened with 200 mesh screen and placed in 50 ml centrifuge tube, centrifuged at 500 rpm for 1-2 min; the supernatant was removed, the precipitate was added with 20-30 ml of RPMI […] (precooled at 4° C.) and washed 3 times; isovolumetric liver cell suspension was taken and suspended in Percoll separating solution I, mixed by turning upside down, centrifuged at 4° C. and 800 rpm for 10 min, the supernatant was discarded, the liver cells were washed with PBS once (800 rpm, 5 min). The liver cell precipitate was added into liver cell culture fluid, resuspended and diluted to 10 ml, and a suitable amount thereof was taken for counting and survival rate was determined by using 0.4% trypan blue. The liver cells with survival rate of 90% or more were inoculated in a density of 2×10^3 on 96-well plate, 100 μl of RPMI 1640 culture medium was added to each well, culture was performed at 37° C., 5% CO2 for 24 h. The compounds were diluted with DMSO to desired concentrations and added to each well in an amount of 1 μl (final compound concentrations were usually initiated from 1000 μM, 10× gradient dilution, 6 gradients), and blank control was added with 1 μl of DMSO.
After the cells were cultured at 37° C., 5% CO2 for 24 h, 100 μl of ATP detection reagent was added, incubated under shock for 15 min. fluorescence values of wells were read by ELIASA. Cell survival rates for each example compounds were calculated, and then GIs values (concentrations of added compounds at which growth of 50% cells was inhibited) were calculated.

[4] = test system: tumor cell A549; assay: Tumor cell inhibition, Cell Titer-Glo cell viability; type: cell-based; details: Homo sapiens, A549 cells, 72 h
Description: The activities of example compounds to tumor cell A549 were evaluated.
(§1) Experimental materials: DMEM high-glucose cell culture media (Hyclone Company), fetal calf serum (FBS) (Gibco Company), penicillin and streptomycin were purchased from North China Pharmaceutical Co., Ltd, phosphate buffer saline (PBS) was purchased from Gibco Company, Cell Titer-Glo® cell viability detection reagent was purchased from Promega Company, pancreatin and dimethylsulfoxide (DMSO) were products of Sigma Company. A549 cell line (human lung adenocarcinoma cell line) was purchased from ATCC.
(§2) The cells were inoculated on a 96-well plate with white wall and penetrative bottom (Costar) in amount of 5000 cells per well, cultured at condition of 37° C., 5% CO2 for 24 h. The compounds to be tested were dissolved with DMSO and diluted to 100 mM, to obtain mother liquids of the compounds.
(§3) DMEM culture solution containing 2% FBS was used to diluted the compounds, in which concentration gradients were 3, and concentration range was 100 μM to 3 nM. The compounds in various dilution degrees were added to the cultured cells on the 96-well plate, 100 μl per well. Culture was performed at 37° C., CO2 for 72 h, supernatant was discarded, and cell viability detection test was performed.
(§4) AfterCell Titer-Glo® reaction buffer solution was mixed with isometric substrate, the mixture was added to 96-well plate, 100 μl per well. Cell lysis was induced by horizontally shaking for 4 min. Reaction signal was stabilized by balancing at room temperature for 15 min. Chemiluminescence units in each well of the 96-well plate were detected by using chemiluminescence detector.
(§5) Inhibition rates at different dilution degrees of each compound were calculated according to chemiluminescence value of each well, and Origin 8.0 software was used for S-type curve fitting of each compound, and for calculating EC50 value.

[5] = test system: multi-drug resistant tumor cell line MES-SA; assay: Inhibition of drug-resistant tumor cell line, Cell Titer-Glo cell viability; therapeutic index against MRC5 cells; type: cell-based; details: Homo sapiens, 72 h
Description: The activity of example compounds to multi-drug resistant tumor cell line MES-SA was evaluated.
as §1, with “MES-SA” for “A549”, “uterine sarcoma” for “lung adenocarcinoma”, “ATCC. MRC5 cell (human embryonic lung fibroblast) was purchased from ATCC.” for “ATCC.”
as §2
as §3, with “0.046 μM.” for “3 nM.”
as §4
as §5, with “value. The ratio of EC50 value of compound for MRC5 cell to EC50 value of compound for MES-SA cell was used as therapeutic index for the compound.” for “value.”

[6] = target: mTORC1 (Homo sapiens, UniProt P42345); assay: Inhibition of mTORC1 in A549 cells: phosphorylation of Thr389 of S6K1 by Western blot; type: cell-based; details: compound 20 μM with insulin 167 nM, 2 h, semi-quantitative
Description: Molecular mechanism of action of the example compounds in tumor cell A549.
Experimental materials: DMEM high-glucose cell culture media (Hyclone Company), fetal calf serum (FBS) (Gibco Company), penicillin and streptomycin were purchased from North China Pharmaceutical Co., Ltd, phosphate buffer saline (PBS) was purchased from Gibco Company, pancreatic enzyme and dimethylsulfoxide (DMSO) were products of Sigma Company. A549 cell line (human lung adenocarcinoma cell line) was purchased from ATCC. Mouse anti-human p-p70S6K(T389) monoclonal antibody was purchased from Cell Signaling Technology Company, mouse anti-human p70S6K monoclonal antibody was purchased from Cell Signaling Technology Company, mouse anti-human p-AKT (S473) monoclonal antibody was purchased from Cell Signaling Technology Company, mouse anti-human AKTmonoclonal antibody was purchased from Cell Signaling Technology Company. Horseradish peroxidase-labeled goat anti-mouse, goat anti-mouse monoclonal antibodies were purchased from Cell Signaling Technology Company. […]

[7] = test system: metastatic soft-tissue or bone sarcomas; details: phase-III; cited from earlier work
[8] = cited from earlier work

IC50 [4]	melting point	SMILES	GI50 at 24 h [3]	IC50 [5]	further results
–	–	CO[C@H]1C[C@@H]2CC[C@@H](C)[C@@](O)(O2)C(=O)C(=O)N2CCCC[C@H]2C(=O)O[C@H]([C@H](C)C[C@@H]2CC[C@@H](OC(=O)C(C)(CO)CO)[C@H](OC)C2)CC(=O)[C@H](C)/C=C(\C)[C@@H](O)[C@@H](OC)C(=O)[C@H](C)C[C@H](C)/C=C/C=C/C=C/1C [Temsirolimus]	–	–	IC50 [1]: 0.0008 µM; Extension of median survival time [2]: 3-6 months
44.8 µM	157 to 160 °C	CO[C@H]1C[C@@H]2CC[C@@H](C)[C@@](O)(O2)C(=O)C(=O)N2CCCC[C@H]2C(=O)O[C@H]([C@H](C)C[C@@H]2CC[C@@H](OC(=O)C[n+]3ccc(C)cc3)[C@H](OC)C2)CC(=O)[C@H](C)/C=C(\C)[C@@H](O)[C@@H](OC)C(=O)[C@H](C)C[C@H](C)/C=C/C=C/C=C/1C.[Br-] [Example 13, 42-O-carbonylmethyl-(4-methyl-pyridine bromide salt-1-yl)-rapamycin]	44.9 µM	< 0.046 µM	–
49.4 µM	–	CO[C@H]1C[C@@H]2CC[C@@H](C)[C@@](O)(O2)C(=O)C(=O)N2CCCC[C@H]2C(=O)O[C@H]([C@H](C)C[C@@H]2CC[C@@H](O)[C@H](OC)C2)CC(=O)[C@H](C)/C=C(\C)[C@@H](O)[C@@H](OC)C(=O)[C@H](C)C[C@H](C)/C=C/C=C/C=C/1C [Rapamycin, reference compound]	24.8 µM	< 0.046 µM	Inhibition of mTORC1 (phosphorylation of Thr389 of S6K1) [6]: could only inhibit mTORC1
–	–	CO[C@H]1C[C@@H]2CC[C@@H](C)[C@@](O)(O2)C(=O)C(=O)N2CCCC[C@H]2C(=O)O[C@H]([C@H](C)C[C@@H]2CC[C@@H](OP(C)(C)=O)[C@H](OC)C2)CC(=O)[C@H](C)/C=C(\C)[C@@H](O)[C@@H](OC)C(=O)[C@H](C)C[C@H](C)/C=C/C=C/C=C/1C [Ridaforolimus]	–	–	Mortality risk reduction in comparison with placebo group [7]: 28%
40.8 µM	145 to 148 °C	CO[C@H]1C[C@@H]2CC[C@@H](C)[C@@](O)(O2)C(=O)C(=O)N2CCCC[C@H]2C(=O)O[C@H]([C@H](C)C[C@@H]2CC[C@@H](O)[C@H](OC)C2)CC(=O)[C@H](C)/C=C(\C)[C@@H](OC(=O)C[n+]2ccc(C)cc2)[C@@H](OC)C(=O)[C@H](C)C[C@H](C)/C=C/C=C/C=C/1C.[Br-] [Example 17, 31-O-carbonylmethyl-(4-methyl-pyridine bromide salt-1-yl)-rapamycin]	54.3 µM	< 0.046 µM	–
52.8 µM	138 to 140 °C	CO[C@H]1C[C@@H]2CC[C@@H](C)[C@@](O)(O2)C(=O)C(=O)N2CCCC[C@H]2C(=O)O[C@H]([C@H](C)C[C@@H]2CC[C@@H](OC(=O)C[n+]3cccc(C)c3)[C@H](OC)C2)CC(=O)[C@H](C)/C=C(\C)[C@@H](O)[C@@H](OC)C(=O)[C@H](C)C[C@H](C)/C=C/C=C/C=C/1C.[Br-] [Example 11, 42-O-carbonylmethyl-(3-methyl-pyridine bromide salt-1-yl)-rapamycin]	71.8 µM	< 0.046 µM	–
–	–	CO[C@H]1C[C@@H]2CC[C@@H](C)[C@@](O)(O2)C(=O)C(=O)N2CCCC[C@H]2C(=O)O[C@H]([C@H](C)C[C@@H]2CC[C@@H](OCCO)[C@H](OC)C2)CC(=O)[C@H](C)/C=C(\C)[C@@H](O)[C@@H](OC)C(=O)[C@H](C)C[C@H](C)/C=C/C=C/C=C/1C [Everolimus, 42-O-(2-hydroxyethyl)-rapamycin]	–	–	Half-life ([8]; in human body): 16 to 19 h; Oral bioavailability ([8]; oral): 15%-30%
